Laboratory results as given in patent EP1216701A1, “Process to increase the concentration of meiosis-activating sterols (MAS) in the cholesterol synthesis and the use of potent inhibitors in the process” (Schering Aktiengesellschaft, priority 2000, dated 2002).

Key:
liver slices = assay: Influence of bile acids on methylsterols and dimethylsterols in liver slices; format: cell-based; conditions: bile acids 160 µM for 9-h, n=2 for UDCA, CDCA, DCA, n=3 for CA and LCA, ratio to campesterol
Experimental: (§1) Cells were washed three times with ice cold PBS (pH 7.4) (once with 2 mg/ml BSA and twice with PBS alone). Epicoprostanol (1 µg in 50 µl of hexane) was added as internal standard to each sample. Sterols were extracted in hexane/isopropanol (3:2 v/v; two times with 4 ml). After drying under nitrogen and alkaline hydrolysis (1 N NaOH in 80% ethanol, 1.5 h at 70°C), the sterols were extracted with cyclohexane (two times with 3 ml). After drying under nitrogen, sterols were converted to their trimethylsilyl (TMS) derivatives by adding 100 µl bis(trimethylsilyl)trifluoracetamide (Pierce)/n-decane (1:1; v/v) and heating for 1 h at 70°C in a conical glass tube. This solution (1-2 µl) was used for gas-chromatography/mass-spectrometry (GC/MS). Rat testes (0.05-0.15 g) were homogenized manually, and lipids were extracted in hexane/isopropanol (3:2 v/v; two times with 4 ml). The extracts were deproteinized with acetone (3 ml) and processed as described above. The observed sterol levels in testis were normalized to correspond to 0.1 g of tissue (wet weight).
(§2) Gas-chromatography was done in the splitless mode with temperature programming as follows: 150°C for 1 min, followed by 20°C/min up to 260°C and 10°C/min up to 280°C (hold for 15 min). Mass spectral data were collected either in the full-scan mode (m/z 50-550) or by selective ion monitoring (SIM). For SIM analyses the electron multiplier voltage was raised by 300 V after the elution of lathosterol to increase the sensitivity of detection for lanosterol, dihydrolanosterol, methylsterols, dimethylsterols and plant sterols. The internal standard epicoprostanol was monitored at m/z 370. […] Peak integration was performed manually, and sterols were quantified from SIM analyses against the internal standard. Unless stated otherwise, MAS amounts are given as a percentage of the control.

HepG2 cells = assay: Accumulation of cholesterol precursors / C29-sterols (MAS) in HepG2 cells, GC/MS (SIM); format: cell-based, Human; conditions: for Dienol (m/z 486) / Enol T-MAS (m/z 484) / Trienol FF-MAS (m/z 482): Conc. 10 µM (combinations 10 + 10 µM), 12 h, n=2, ± SD; for changes in the cholesterol precursor pattern: at 10 µM, compared to potent inhibitors, data not shown
Experimental: Human hepatoma HepG2 cells were cultured to confluency in 60-mm dishes in phenol-red-free Dulbecco's modified Eagle's medium (DMEM) containing Pen-Strep (100 µg/ml), glucose (10 mM), sodium bicarbonate (45 mM) and glutamine (4 mM) supplemented with 10% fetal calf serum as described previously (24). At the beginning of the experiment the medium was changed to serum-free DMEM supplemented with 10% lipid-free "controlled process serum replacement" (CPSR-1). Compounds were added from ethanolic stock solutions to produce final ethanol concentrations of 0.1-0.3% v/v. Controls received the same amount of ethanol. Aminotriazole was added in an aqueous solution. Slices of rat testis (25 µm; 25-50 mg wet weight) were incubated under the same conditions in a shaking water bath (37°C). For isotopomer spectral analysis (ISA) of lathosterol, 1-^13C-acetate was added in an aqueous solution to a final concentration of 1 mM.
as §1, §2

[1] = HepG2 cells, bile acids 160 µM, 12-h, n=3, mean ± SD, ratio to internal standard epicoprostanol

Compound: C[C@H](CCC(=O)O)[C@H]1CC[C@H]2[C@@H]3[C@@H](O)C[C@@H]4C[C@H](O)CC[C@]4(C)[C@H]3CC[C@]12C [UDCA, Ursodeoxycholic acid]
- FF-MAS Dimethylst.-trien (482 m/z) (liver slices): 204 % of control
- Methylst.-dien (470 m/z) (liver slices): 235 % of control
- T-MAS Dimethylst.-dien (484 m/z) (liver slices): 633 % of control
- FF-MAS Dimethylst.-trien (482 m/z) (HepG2 cells; [1]): 309 ± 51 % of control
- Methylst.-dien (470 m/z) (HepG2 cells; [1]): 509 ± 19 % of control
- T-MAS Dimethylst.-dien (484 m/z) (HepG2 cells; [1]): 655 ± 84 % of control

Compound: COc1ccc(CCN(C)CCCC(C#N)(c2ccc(OC)c(OC)c2)C(C)C)cc1OC (centres unmarked) [Verapamil]
- Dienol (m/z 486) (HepG2 cells; HepG2 cells): 18 ± 4 % of control
- Enol T-MAS (m/z 484) (HepG2 cells; HepG2 cells): 416 ± 79 % of control
- Trienol FF-MAS (m/z 482) (HepG2 cells; HepG2 cells): 498 ± 103 % of control

Compound: C[C@]12CCC(=O)C=C1CC[C@@H]1[C@@H]2CC[C@]2(C)C(=O)CC[C@@H]12 [androstenedione, 4-Androsten-3,17-dione]
- changes in the cholesterol precursor pattern (HepG2 cells; HepG2 cells): only minor changes

Compound: C[C@]12CC[C@H](O)CC1=CC[C@@H]1[C@@H]2CC[C@]2(C)C(=O)CC[C@@H]12 [dehydroepiandrosterone]
- changes in the cholesterol precursor pattern (HepG2 cells; HepG2 cells): only minor changes

Compound: C[C@]12CC[C@H]3[C@@H](CCC4=CC(=O)CC[C@@]43C)[C@@H]1CC[C@@H]2O [testosterone, Testosterone]
- changes in the cholesterol precursor pattern (HepG2 cells; HepG2 cells): only minor changes

Compound: C[C@]12CC[C@@H]3c4ccc(O)cc4CC[C@H]3[C@@H]1CC[C@@H]2O [β-estradiol, 17β-Estradiol]
- changes in the cholesterol precursor pattern (HepG2 cells; HepG2 cells): only minor changes
- effect on the accumulation of cholesterol precursors observed with progesterone alone (HepG2 cells; β-estradiol 10 µM in combination with progesterone 10 µM): did not alter

Compound: Medroxyprogesterone
- Dienol (m/z 486) (HepG2 cells; HepG2 cells): 509 ± 50 % of control
- Enol T-MAS (m/z 484) (HepG2 cells; HepG2 cells): 1181 ± 90 % of control
- Trienol FF-MAS (m/z 482) (HepG2 cells; HepG2 cells): 227 ± 11 % of control
